Each structure is given as a SMILES string. A value given as a limit tells only on which side of the number the result lay.

The target of this assay is T1, IKZF3-GFP (Homo sapiens, UniProt Q96SW2+Q9UKT9).
T1 construct: expressed in transfected cells; host or cells: HEK293A (Invitrogen R70507), lentiviral transduction with pLenti6-IKZF3-GFP-Ires-RFP, blasticidin selection
Nature of the assay: IKZF3-GFP protein abundance flow cytometry assay in HEK293A cells. It is filed as cell-based. Particulars: HEK293A IKZF3-GFP-iresRFP cells, 24 h; for DC50: GFP signal by flow cytometry; for IKZF3 deg Amax: % protein remaining at maximum degradation. The protocol:
BTK-GFP and IKZF3-GFP protein abundance flow cytometry assay in HEK293A cells:
Degradation of BTK or IKZF3 was measured in HEK293A cells (Invitrogen R70507) expressing either BTK-GFP and RFP or IKZF3-GFP and RFP from a stably integrated bicistronic BTK-GFP-iresRFP or IKZF3-GFP-iresRFP construct, respectively. Reduction of the GFP signal measured by flow cytometry served as readout for BTK or IKZF3 degradation after degrader treatment.
By analogy the bicistronic pLenti6-IKZF3-GFP-iresRFP was engineered by gateway cloning of IKZF3 from a pENTR221-IKZF3(STOP-Leu) construct into the previously described pLenti6-DEST-GFP-Ires-RFP vector using the LR Clonase kit (Invitrogen 11791-019) according to the manufacturer's manual. All vectors described have been sequenced for verification.
ii) Engineering of Stably Expressing 293A BTK-GFP-Ires-RFP and IKZF3-GFP-Ires-RFP Sensor Cells
293A BTK-GFP-Ires-RFP and IKZF3-GFP-ires-RFP sensor cells were generated by lentiviral vector transduction using the pLenti6-BTK-GFP-Ires-RFP or pLenti6-IKZF3-GFP-Ires-RFP sensor construct described before. Lentiviral particles were produced in HEK293FT cells (Invitrogen R70007) by co-transfection of 500 ng pLenti6-BTK-GFP-ires-RFP or pLenti6-IKZF3-GFP-Ires-RFP, 500 ng delta8.71 and 200 ng pVSVG diluted in 100 μl OptiMEM serum free medium (Invitrogen #11058-021) that was mixed after 5 min preincubation with 3 μl of Lipofectamine2000 (Invitrogen #11668-019) in 97 μl OptiMEM serum free medium. The mix was incubated for another 20 min at RT and then added on 1 ml of a freshly prepared suspension of HEK293FT cells in a well of a 6-well plate (concentration 1.2×10^6 cells/ml). 1 day after transfection, the medium was replaced with 1.5 ml of complete growth medium (DMEM high Glucose+10% FCS+1% L-Glutamine+1% NEAA+1% NaPyr.). 48 h post transfection supernatant containing viral transducing particles was collected and frozen at −80° C.
Two days before transduction with viral particles 1×10^5 HEK293A cells (Invitrogen R70507) were seeded in 2 ml growth medium in a well of a 6-well plate. Infection was performed with 90 μl of collected supernatant containing viral transducing particles in 1 ml medium including 8 μg/ml polybrene. 24 h post infection, stably transfected cells were selected with blasticidin at a concentration of 8 μg/ml.
Iii) Quantitative BTK-GFP and IKZF3-GFP Abundance Measurements
Stable HEK293A-BTK-GFP-iresRFP cells were maintained in complete growth medium (DMEM high Glucose+10% FCS+1% L-Glutamine+1% NEAA+1% NaPyr.) with passaging performed twice per week. On Day 0, HEK293A-BTK-GFP-iresRFP or HEK293A-IKZF3-GFP-iresRFP and HEK293A-iresRFP cells were seeded at 10,000 cells/well in a 96-well microtiter plate in 260 μl complete medium. On Day 1, cells were treated in duplicate with 10-point 1:3 dilution series of compound using the HP D300 Digital Dispenser (Tecan). DMSO concentrations were normalized across the plate to 0.1%. On Day 2, after 24 h of incubation at 37° C., treatment media was discarded, cells rinsed with 100 μl/well PBS and then detached using 40 μl trypsin/well for 5 min. Trypsin was neutralized with 100 μl/well PBS+20% FCS). Flow cytometry was performed on the samples using the BD FACS CANTO II (Becton Dickinson). Cell identification was then performed using forward (FSC) vs. side scatter (SSC) plots. […] Median GFP values for 5,000 single cells are used to determine BTK levels. Median GFP values from HEK293A-iresRFP are used as a background signal and thus defining 0% BTK signal. Median GFP values from DMSO treated HEK293A-BTK-GFP-iresRFP or HEK293A-IKZF3-GFP-iresRFP are used to define 100% BTK signal for subsequent DC50 curves (concentration at 50% BTK degradation).

T1 sequence (Q9UKT9 whole entry): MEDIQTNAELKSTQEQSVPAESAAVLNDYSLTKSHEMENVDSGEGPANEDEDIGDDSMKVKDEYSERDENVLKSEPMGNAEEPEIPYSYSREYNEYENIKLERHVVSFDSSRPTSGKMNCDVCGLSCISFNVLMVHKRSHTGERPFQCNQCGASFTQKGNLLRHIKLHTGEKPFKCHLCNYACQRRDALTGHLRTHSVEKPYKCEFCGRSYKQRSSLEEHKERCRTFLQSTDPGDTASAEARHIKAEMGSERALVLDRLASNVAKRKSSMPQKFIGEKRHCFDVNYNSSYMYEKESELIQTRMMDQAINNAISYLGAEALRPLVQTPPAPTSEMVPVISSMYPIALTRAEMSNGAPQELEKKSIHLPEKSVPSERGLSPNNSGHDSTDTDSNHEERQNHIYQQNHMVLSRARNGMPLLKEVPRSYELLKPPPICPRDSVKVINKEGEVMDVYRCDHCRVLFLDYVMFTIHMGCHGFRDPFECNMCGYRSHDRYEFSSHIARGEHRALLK
T1 sequence (Q96SW2 whole entry): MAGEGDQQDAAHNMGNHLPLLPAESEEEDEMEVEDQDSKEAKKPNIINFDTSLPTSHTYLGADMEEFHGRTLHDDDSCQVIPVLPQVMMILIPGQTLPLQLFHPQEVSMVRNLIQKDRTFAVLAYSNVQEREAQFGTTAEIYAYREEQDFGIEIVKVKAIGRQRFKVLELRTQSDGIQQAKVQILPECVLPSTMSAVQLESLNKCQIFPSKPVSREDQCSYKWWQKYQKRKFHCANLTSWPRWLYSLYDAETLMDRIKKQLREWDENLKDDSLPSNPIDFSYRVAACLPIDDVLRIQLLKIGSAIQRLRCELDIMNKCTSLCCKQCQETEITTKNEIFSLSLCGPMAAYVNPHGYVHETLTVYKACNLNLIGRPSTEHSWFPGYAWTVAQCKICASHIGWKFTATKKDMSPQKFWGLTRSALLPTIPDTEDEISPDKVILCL
T1 sequence (Q16531 whole entry partner): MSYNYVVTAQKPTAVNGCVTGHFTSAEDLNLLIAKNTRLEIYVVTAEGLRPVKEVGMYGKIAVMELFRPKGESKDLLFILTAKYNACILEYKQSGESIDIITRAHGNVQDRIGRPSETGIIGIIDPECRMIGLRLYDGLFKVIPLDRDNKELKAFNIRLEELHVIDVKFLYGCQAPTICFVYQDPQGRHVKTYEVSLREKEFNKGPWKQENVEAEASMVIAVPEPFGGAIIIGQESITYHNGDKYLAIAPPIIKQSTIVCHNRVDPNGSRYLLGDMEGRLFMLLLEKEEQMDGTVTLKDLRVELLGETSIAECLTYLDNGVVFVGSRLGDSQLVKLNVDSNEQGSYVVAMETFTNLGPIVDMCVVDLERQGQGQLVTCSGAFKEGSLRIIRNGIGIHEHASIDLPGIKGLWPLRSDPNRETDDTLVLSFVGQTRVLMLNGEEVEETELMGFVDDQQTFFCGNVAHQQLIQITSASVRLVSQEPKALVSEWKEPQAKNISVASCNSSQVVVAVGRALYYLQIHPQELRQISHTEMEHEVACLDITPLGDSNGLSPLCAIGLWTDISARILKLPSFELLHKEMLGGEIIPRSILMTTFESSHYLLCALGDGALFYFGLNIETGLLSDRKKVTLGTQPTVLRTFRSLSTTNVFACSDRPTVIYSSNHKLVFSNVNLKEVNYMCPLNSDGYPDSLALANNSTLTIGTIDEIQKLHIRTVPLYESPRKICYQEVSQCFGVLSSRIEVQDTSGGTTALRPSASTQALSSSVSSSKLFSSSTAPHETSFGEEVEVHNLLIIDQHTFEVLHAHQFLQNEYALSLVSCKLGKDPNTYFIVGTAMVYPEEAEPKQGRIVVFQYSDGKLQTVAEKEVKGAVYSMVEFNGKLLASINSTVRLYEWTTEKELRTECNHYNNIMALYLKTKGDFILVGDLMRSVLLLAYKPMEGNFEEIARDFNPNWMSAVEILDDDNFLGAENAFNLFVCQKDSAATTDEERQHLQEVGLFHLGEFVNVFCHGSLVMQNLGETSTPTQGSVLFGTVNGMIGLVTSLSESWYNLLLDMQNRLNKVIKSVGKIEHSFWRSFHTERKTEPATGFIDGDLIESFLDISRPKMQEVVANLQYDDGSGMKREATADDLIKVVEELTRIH

For the molecule `COc1ccc(C(=O)N2CCC3(CCN(Cc4ccc(-c5cc6c(-c7cc(F)cc(NC(=O)c8ccc(C(C)(C)O)cc8F)c7C)ncnc6[nH]5)cc4)CC3)CC2)cc1N1CCC(=O)NC1=O` [Compound 9, N-(3-(6-(4-((9-(3-(2,4-Dioxotetrahydropyrimidin-1(2H)-yl)-4-methoxybenzoyl)-3,9-diazaspiro[5.5]undecan-3-yl)methyl)phenyl)-7H-pyrrolo[2.3-d]pyrimidin-4-yl)-5-fluoro-2-methylphenyl)-2-fluoro-4-(2-hydroxypropan-2-yl)benzamide], the DC50 was > 7.8 µM and the “IKZF3 deg Amax” value was determined as 99.1%.

Regarding `Cc1c(NC(=O)c2ccc(C(C)(C)O)cc2F)cc(F)cc1-c1ncnc2[nH]c(-c3ccc(CN4CCC5(CC4)CCN(C(=O)c4ccc(F)c(N6CCC(=O)NC6=O)c4)CC5)cc3)cc12` [Compound 14, N-(3-(6-(4-((9-(3-(2,4-Dioxotetrahydropyrimidin-1(2H)-yl)-4-fluorobenzoyl)-3,9-diazaspiro[5.5]undecan-3-yl)methyl)phenyl)-7H-pyrrolo[2.3-d]pyrimidin-4-yl)-5-fluoro-2-methylphenyl)-2-fluoro-4-(2-hydroxypropan-2-yl)benzamide], the DC50 is > 1.1 µM and the “IKZF3 deg Amax” value is reported as 100.2%.

Take `Cc1c(NC(=O)c2ccc(C(C)(C)O)cc2F)cc(F)cc1-c1ncnc2[nH]c(-c3ccc(CCN4CCC5(CC4)CCN(C(=O)c4cccc(N6CCC(=O)NC6=O)c4)CC5)cc3)cc12` [Compound 12, N-(3-(6-(4-(2-(9-(3-(2,4-Dioxotetrahydropyrimidin-1(2H)-yl)benzoyl)-3,9-diazaspiro[5,5]undecan-3-yl)ethyl)phenyl)-7H-pyrrolo[2,3-d]pyrimidin-4-yl)-5-fluoro-2-methylphenyl)-2-fluoro-4-(2-hydroxypropan-2-yl)benzamide]: the DC50 was > 1.1 µM and the “IKZF3 deg Amax” value was found to be 100.4%.

Take `COc1ccc(C(=O)NCCN2CCC3(CC2)CCN(Cc2ccc(-c4cc5c(-c6cc(F)cc(NC(=O)c7ccc(C(C)(C)O)cc7F)c6C)ncnc5[nH]4)cc2)CC3)cc1N1CCC(=O)NC1=O` [Compound 44, N-(3-(6-(4-((9-(2-(3-(2,4-dioxotetrahydropyrimidin-1(2H)-yl)-4-methoxybenzamido)ethyl)-3,9-diazaspiro[5.5]undecan-3-yl)methyl)phenyl)-7H-pyrrolo[2,3-d]pyrimidin-4-yl)-5-fluoro-2-methylphenyl)-2-fluoro-4-(2-hydroxypropan-2-yl)benzamide]: the DC50 is > 3.3 µM and the “IKZF3 deg Amax” value is 99.7%.

Take `COc1ccc(C(=O)N2CCC3(CCN(CCc4ccc(-c5cc6c(-c7cc(F)cc(NC(=O)c8ccc(C(C)(C)O)cc8F)c7C)ncnc6[nH]5)cc4)CC3)CC2)cc1N1CCC(=O)NC1=O` [Compound 31, N-(3-(6-(4-(2-(9-(3-(2,4-Dioxotetrahydropyrimidin-1(2H)-yl)-4-methoxybenzoyl)-3,9-diazaspiro[5.5]undecan-3-yl)ethyl)phenyl)-7H-pyrrolo[2,3-d]pyrimidin-4-yl)-5-fluoro-2-methylphenyl)-2-fluoro-4-(2-hydroxypropan-2-yl)benzamide]: the DC50 is > 5.5 µM and the “IKZF3 deg Amax” value was determined as 99.8%.

Turning to `CCOc1ccc(C(=O)N2CCC3(CCN(Cc4ccc(-c5cc6c(-c7cc(F)cc(NC(=O)c8ccc(C(C)(C)O)cc8F)c7C)ncnc6[nH]5)cc4)CC3)CC2)cc1N1CCC(=O)NC1=O` [Compound 4, N-(3-(6-(4-((9-(3-(2,4-Dioxotetrahydropyrimidin-1(2H)-yl)-4-ethoxybenzoyl)-3,9-diazaspiro[5.5]undecan-3-yl)methyl)phenyl)-7H-pyrrolo[2,3-d]pyrimidin-4-yl)-5-fluoro-2-methylphenyl)-2-fluoro-4-(2-hydroxypropan-2-yl)benzamide], the DC50 is > 1.1 µM and the “IKZF3 deg Amax” value amounted to 101.3%.

With `Cc1c(NC(=O)c2ccc(C(C)(C)O)cc2F)cc(F)cc1-c1ncnc2[nH]c(-c3ccc(CCN4CCC5(CC4)CCN(C(=O)c4ccc(F)c(N6CCC(=O)NC6=O)c4)CC5)cc3)cc12` [Compound 47, N-(3-(6-(4-(2-(9-(3-(2,4-dioxotetrahydropyrimidin-1(2H)-yl)-4-fluorobenzoyl)-3,9-diazaspiro[5.5]undecan-3-yl)ethyl)phenyl)-7H-pyrrolo[2,3-d]pyrimidin-4-yl)-5-fluoro-2-methylphenyl)-2-fluoro-4-(2-hydroxypropan-2-yl)benzamide], the DC50 is > 1.1 µM and the “IKZF3 deg Amax” value is listed as 99.7%.

In the case of `COc1ccc(C(=O)N2CCC3(CC2)CCN(C(C)(C)Cc2ccc(-c4cc5c(-c6cc(F)cc(NC(=O)c7ccc(C(C)(C)O)cc7F)c6C)ncnc5[nH]4)cc2)CC3)cc1N1CCC(=O)NC1=O` [Compound 20, N-(3-(6-(4-(2-(9-(3-(2,4-Dioxotetrahydropyrimidin-1(2H)-yl)-4-methoxybenzoyl)-3,9-diazaspiro[5.5]undecan-3-yl)-2-methylpropyl)phenyl)-7H-pyrrolo[2,3-d]pyrimidin-4-yl)-5-fluoro-2-methylphenyl)-2-fluoro-4-(2-hydroxypropan-2-yl)benzamide], the DC50 was > 1.1 µM and the “IKZF3 deg Amax” value was 93.3%.

Regarding `COc1ccc(C(=O)N2CCC(OC3CCN(CCc4ccc(-c5cc6c(-c7cc(F)cc(NC(=O)c8ccc(C(C)(C)O)cc8F)c7C)ncnc6[nH]5)cc4)CC3)CC2)cc1N1CCC(=O)NC1=O` [Compound 34, N-(3-(6-(4-(2-(4-((1-(3-(2,4-Dioxotetrahydropyrimidin-1(2H)-yl)-4-methoxybenzoyl)piperidin-4-yl)oxyl)piperidin-1-yl)ethyl)phenyl)-7H-pyrrolo[2,3-d]pyrimidin-4-yl)-5-fluoro-2-methylphenyl)-2-fluoro-4-(2-hydroxypropan-2-yl)benzamide], the DC50 is > 10 µM and the “IKZF3 deg Amax” value is given as 94.7%.

Regarding `Cc1cc(F)c(C(=O)NCCCCCNCc2ccc(-c3cc4c(-c5cc(F)cc(NC(=O)c6ccc(C(C)(C)O)cc6F)c5C)ncnc4[nH]3)cc2)cc1N1CCC(=O)NC1=O` [Compound 29, 5-(2,4-Dioxotetrahydropyrimidin-1(2H)-yl)-2-fluoro-N—(S-((4-(4-(5-fluoro-3-(2-fluoro-4-(2-hydroxypropan-2-yl)benzamido)-2-methylphenyl)-7H-pyrrolo[2,3-d]pyrimidin-6-yl)benzyl)amino)pentyl)-4-methylbenzamide], the DC50 was > 3.3 µM and the “IKZF3 deg Amax” value was 98.6%.

`Cc1ccc(C(=O)N(C)CCCCCNCc2ccc(-c3cc4c(-c5cc(F)cc(NC(=O)c6ccc(C(C)(C)O)cc6F)c5C)ncnc4[nH]3)cc2)cc1N1CCC(=O)NC1=O` [Compound 30, 3-(2,4-Dioxotetrahydropyrimidin-1(2H)-yl)-N-(5-((4-(4-(5-fluoro-3-(2-fluoro-4-(2-hydroxypropan-2-yl)benzamido)-2-methylphenyl)-7H-pyrrolo[2,3-d]pyrimidin-6-yl)benzyl)amino)pentyl)-N,4-dimethylbenzamide]: the DC50 was > 3.3 µM and the “IKZF3 deg Amax” value amounted to 101.1%.
